# Patent US9056837B2, “Heterocycle compounds and uses thereof” (Intra-Cellular Therapies, Inc., priority 2007, dated 2015)
# Experiment: Mouse brain/plasma distribution assay for tissue levels of test compounds
# Format: in vivo, C57b1/6 black mice
# Conditions: C57Bl/6, mouse, brain, sc; mice, subcutaneous single injection of 1 mg (10 mM DMSO solution); four hours post-administration; measured minus 2% of plasma
# Experimental: Compounds are administered subcutaneously to C57b1/6 black mice as a single injection of 1 mg using a 10 mM DMSO solution. After 2 or 4 hours, the mice are sacrificed. Trunk blood is collected into tubes with potassium-EDTA as anticoagulant and centrifuged at 5000×g for 10 min. The upper plasma phase is decanted from cellular components. Whole brain is sonicated with 20 mM Tris-HCl, 135 mM NaCl, pH 7.4 buffer, giving at 200 mg/mL (w/v) homogenate. Brain homogenate or plasma is extracted with 2 volumes of acetonitrile and clarified by centrifugation at 15,000×g for 20 min. Extracts are separated by HPLC using a Waters Alliance 2695 separations module with a Sunfire™ C18 column (3.5 micron, 2.1×50 mm) and a gradient of methanol over 15 min in a mobile phase of 0.1% formic acid. The separation is monitored by a Micromass Quattro Micro triple-quadrupole mass-spectrometric detector. Compound standardization is performed by methods analogous to those previously reported, e.g., by Zhao, M., et al. (2005) J Chromatogr B Analyt Technol Biomed Life Sci 819, 73-80; and Appels, N. M et al. (2005) Rapid Commun Mass Spectrom 19, 2187-2192. Brain concentration=measured−2% of plasma B/P ratio=brain concentration/plasma concentration
smiles,measurement,value
Cc1ccc(NC(=O)c2ccc(CN3CCN(C)CC3)cc2)cc1Nc1nccc(-c2cccnc2)n1 [imatinib],concentration at 4 h,< 100 nM
